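Test compounds were applied to cells in 96-well plates for 48 hours at 5 doses. GI50 marks 50% less growth.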 The source made the active and inactive calls. No stated cut-off is given here; in the data, active = GI50 up to about 1.1 µM and inactive = higher.
Tests used:
Assay in all cases: inhibition of tumour cell growth, NCI panel, 48 h
[1] = test system: MDA-MB-231
[2] = test system: PC-3
[3] = test system: MDA-N
[4] = test system: BT-549
[5] = test system: DU-145
[6] = test system: T47D
[7] = test system: MDA-MB-435
[8] = test system: 786-0
[9] = test system: RXF 631

Measured: GI50

Cc1cn(C2CC(n3cc(Cn4ccc(=O)[nH]c4=O)nn3)C(CO)O2)c(=O)[nH]c1=O (stereo not given)
inactive: [1] > 100 µM | [2] > 100 µM | [3] > 100 µM | [4] > 100 µM | [5] > 100 µM | [6] > 100 µM | [7] > 100 µM

CC(C)(Br)C(=O)N1CCN(C(c2ccccc2)c2ccccc2)CC1
inactive: [1] > 100 µM | [2] 50.1 µM | [8] > 100 µM | [3] > 100 µM | [4] > 100 µM | [5] 50.6 µM | [7] > 100 µM

C=C(CO)C(=O)OC1CC(=C)C2CC(O)C(C)C2C2OC(=O)C(=C)C12 (stereo not given)
inactive: [1] 20 µM | [2] 31.6 µM | [8] 37.3 µM | [3] 19.3 µM | [4] 14.9 µM | [5] 42.5 µM | [6] 49.4 µM | [7] 21.2 µM

Cc1c2ccccc2c(CO)c2cc(F)c3ccccc3c12
inactive: [9] 16.7 µM

CC1CC(c2ccc([N+](=O)[O-])cc2)=Nc2ccccc2[S+]1[O-] (stereo not given)
inactive: [9] 20.8 µM

COc1cc(OC)cc(N2CCC(c3c(N)nc(N)nc3Cl)CC2)c1
inactive: [8] > 100 µM | [9] > 100 µM

CC1(C)C(=O)OC(n2cc(F)c(=O)[nH]c2=O)C1=O (stereo not given)
inactive: [8] > 100 µM

Cc1coc2c1C[C@@]1(C)[C@H](CCC[C@@H]1C)[C@H]2O
inactive: [1] 20.7 µM | [2] 19.1 µM | [3] 49.9 µM | [5] 11.9 µM | [6] 19.9 µM | [7] 30.1 µM

Cc1cc2c(=O)c3ccccc3[nH]c2c(C(N)=O)c1C
inactive: [8] > 100 µM | [9] > 100 µM

Cc1ccc2c(O)cc(-c3ccc(F)cc3)nc2n1
inactive: [1] 63 µM | [3] 12.1 µM | [4] 86.3 µM | [5] 81.7 µM | [6] 41.9 µM
